# Data taken from patent US11413302B2, “Use of carrimycin or active ingredients thereof and use thereof” (SHENYANG FUYANG PHARMACEUTICAL TECHNOLOGY CO., LTD., priority 2018, dated 2022).
# Key:
# rats induced by Aβ1-42 [1] = assay: rat Y-maze experiment, Aβ1-42 AD model; type: in vivo, Sprague Dawley rats; details: 30 mg/kg
# Protocol: The rat Y-maze experiment: on the 12th day after the administration, the Y-maze experiment was performed on the groups of rats. […] In the experiment, the rats were placed into the tip of the arm A, and were permitted to freely enter and leave the three arms. The total time quantity of entering the arms and the order of entering the arms within 8 min of each of the rats were recorded. By using the continuous entering into the three different arms as one correct alternate reaction, the time quantity of the correct alternate reactions was recorded. The spontaneous alternate reaction rate is used to reflect the capacity of space working memory.
# rats induced by Aβ1-42 [2] = assay: rat Morris water-maze experiment, Aβ1-42 AD model; type: in vivo, Sprague Dawley rats; details: 30 mg/kg
# Protocol: (§3) The mice were randomly divided into 6 groups, a sham-operation control group, a model group, three groups were fed with 25, 50 and 100 mg/kg of carrimycin, and one group was fed with 30 mg/kg of the positive drug resveratrol.
# (§4) Experimental process: Aβ1-42 was dissolved by using a hexafluoroisopropanol/sterile normal-saline solution to obtain the concentration of 2 μg/μL, incubated and aged at 4° C. for 24 h to form a AO oligomer, and reserved. […] 2.5 μL, (0.5 μL/min) was injected within 5 min into each side of the hippocampus, and the needle was retained for 5 min, to result in a rat dementia model.
# On the next day after the model was established, the sham-operation control group and the model group were administered intragastrically by using the corresponding solvents, the other experimental groups were administered intragastrically by using 25, 50 and 100 mg/kg of carrimycin and 30 mg/kg of the positive drug resveratrol. On the 12th day after Aβ1-42 was injected into the hippocampus, the experiments of Y maze, new-object distinguishing and water maze were carried out in sequence. Continue to administer during the behavioral experiment 1 time per day till the behavioristics end.
# The rat water-maze experiment: on the 16-20th day after the administration, the Morris water-maze experiment was performed on the groups of rats. The Morris water-maze experiment aims at investigating the influence by Carrimycin on the space studying memory disorder. The water-maze apparatus is composed of a black stainless-steel circular water pool with the diameter of 1.5 meters and the height of 50 centimeters and a circular metal platform with the diameter of 10 centimeters, and the platform can freely move. Before the experiment, the water pool was filled with water (water temperature 24±1° C.) to cause the water level to be above the platform by 1 centimeter. In the training phase, training is performed 1 time in the morning and afternoon per day for 6 days. […]
# rats induced by Aβ1-42 [3] = assay: rat new-object-distinguishing experiment, Aβ1-42 AD model; parameters: species or system Sprague Dawley rats; details: in vivo
# Protocol: as §3, §4
# On the next day after the model was established, the sham-operation control group and the model group were administered intragastrically by using the corresponding solvents, the other experimental groups were administered intragastrically by using 25, 50 and 100 mg/kg of carrimycin and 30 mg/kg of the positive drug resveratrol. […]
# The rat new-object-distinguishing experiment: on the 14-15th day after the administration, the new-object-distinguishing experiment was performed on the groups of rats. […] The test was performed on the third day, in which each time one rat was placed into the open field to firstly freely explore for 3min, and was then taken out, 2 same objects (A1, A2) were placed into the center of the open field, the rat was placed into the open field, and the durations (tA1, tA2) during which the rat exploreed the two objects within 5 min were recorded. After 1 h, the object A2 was replaced with a new object B, the rat was placed into the open field again, and the durations (tA1, tB) during which the rat explored the two objects were recorded. After 24 h, the object B was replaced with an object C, the rat was placed into the open field again, and the durations (tA1, tC) during which the rat explored the two objects were recorded. […] The preferential index and the discrimination index to the new objects are calculated. […]
# diabetes mouse [4] = assay: sugar tolerance of diabetes mouse (glucose 2 g/kg by gavage); type: in vivo, Kunming mice; details: 200 mg/kg; for Blood sugar value 0 h: 0 h after glucose; for Blood sugar value 0.5 h: 0.5 h after glucose; for Blood sugar value 2 h: 2 h after glucose
# Protocol: (§1) The study on the effect of Carrimycin on reducing blood sugar comprises Kunming mice was selected, single intraperitoneal injection with 160 mg/kg of alloxan was subjected to Kunming mice to form model mice. The mice whose values of blood sugar are stable at the modeling level (10˜25mmol/L) were selected, divided randomly into a model control group, a positive control group (200 mg/kg of metformin) and an administration group (with Carrimycin as the drug, 25, 50 and 100 mg/kg). Simultaneously a normal control group was provided, and was given gastric normal saline.
# (§2) After the model was made and gavage was given for 30 and 45 days, the mice were fasted for 16 hours, and the mice were weighed. After weighing, blood was collected at the tail tip, and the fasting blood sugar was measured by using a blood-sugar meter. After the value of fasting blood sugar was measured, the […] were administered by intragastric administration once. After 2 h, mice in each group were given a glucose solution by gavage at 2 g/kg, and blood was collected at the tip of the tail. The blood sugar values at 0, 0.5 and 2 h were measured after the administration of glucose (Bg0, Bg0.5 and Bg2), and the area (AUC) (reaction sugar tolerance) under the blood sugar curve was calculated by using the following formula: AUC=0.25*(Bg0+4*Bg0.5+3*Bg2); and […]
# INS-1 cell = assay: protection of INS-1 islet cell against alloxan damage (MTT); type: cell-based, Rat; details: 0.5 mM; 24 mmol/L alloxan damage, 24 h
# Protocol: the INS-1 cell was the adherent cell, the INS-1 cell in the logarithmic growth phase was used, digested by using trypsin, beated by using a complete medium, and prepared into a single-cell suspension. The cell concentration was adjusted to be 1*10^5/ml, and the cell was inoculated into the 96-well culture plate with 100 μl per well, cultured in the incubator at 5% CO2 and 37° C. for 24 h. The cells were grouped according to the demands of the experiment, the cell of the administration groups were administered with 24 mmol/L of alloxan damage, simultaneously were administered with the drug to be tested Carrimycin with different concentrations (0.2, 0.4 and 0.8 mM), 4 complex wells for each of the concentrations were provided, and all groups were continued to be cultured at 37° C. for 24 h. Additionally a normal control group (no medication administered), a model group (merely administered with alloxan damage) and a positive control group (based on the alloxan treatment, 0.5 mmol/L of metformin was added) were provided. […] And the optical density of all groups were measured by using a microplate reader at 492 nm.
# The survival rate of the INS-1 cell treated by the drug is calculated by using the following formula: Survival rate of INS cell (%)=A492 (administration group)/A492 (normal control group)×100%
# diabetes mouse [5] = assay: fasting insulin (ELISA) and insulin resistance of alloxan diabetes mice; type: in vivo, Kunming mice; details: 200 mg/kg; 45 days; fasting blood sugar*fasting insulin/22.5
# Protocol: as §1
# After the model was made and gavage was given for 45 days, the mice were fasted for 16 h, and blood was collected from the fundus venous plexus. Before taking blood, the capillary was moistened with heparin, 0.5 ml of blood was collected from the fundus venous plexus, centrifuged at 3500 r/min for 10 min, and plasma was separated for testing. The supernatant was sucked, and the insulin was measured by using the ELISA method. […]
# The measurement of the insulin resistance: after the concentrations of fasting blood sugar and insulin have been measured, the insulin resistance was calculated by using the formula: insulin resistance=fasting blood sugar*fasting insulin/22.5 (it is recently reported that when it is>2.6, it is determined that insulin resistance exists).
# [6] = body weight of alloxan diabetes mice; type: in vivo, Kunming mice; details: 200 mg/kg, gavage
# Protocol: as §1, §2
# diabetes mouse [7] = assay: fasting blood sugar of alloxan diabetes mice; type: in vivo, Kunming mice; details: 200 mg/kg
# Protocol: as §1, §2
compound,measurement,setting,value
"Oc1ccc(C=Cc2cc(O)cc(O)c2)cc1 [Resveratrol, resveratrol]",total time quantities of entering the arms,"rats induced by Aβ1-42 [1]; between groups, FIG. 2",did not have a significant difference
same,Y-maze spontaneous alternate reaction rate,"rats induced by Aβ1-42 [1]; compared with the model group, FIG. 1",significantly increased
same,escape latent periods,"rats induced by Aβ1-42 [2]; 2nd day, trend maintained on 3rd and 4th days, compared with the model group, FIG. 7",significantly decreased
same,swimming speeds,"rats induced by Aβ1-42 [2]; between groups, FIG. 9",did not have a significant difference
same,time quantities of passing through of the platform,"rats induced by Aβ1-42 [2]; compared with the model group, FIG. 8",significantly increased
same,Discrimination index on A1 and A2 (%),rats induced by Aβ1-42 [3],52.87 ± 5.43%
same,discrimination indexes on the new objects,rats induced by Aβ1-42 [3],significantly increased
same,preferential indexes on the new objects,rats induced by Aβ1-42 [3],significantly increased
CN(C)C(=N)N=C(N)N [metformin],AUC under the blood sugar curve,diabetes mouse [4]; 30th day,33.6 ± 2.7^**#
same,Blood sugar value 0 h,diabetes mouse [4]; 30th day,14.6 ± 1.4^**
same,Blood sugar value 0.5 h,diabetes mouse [4]; 30th day,19.8 ± 1.8^**##
same,Blood sugar value 2 h,diabetes mouse [4]; 30th day,13.5 ± 1.9^**#
same,AUC under the blood sugar curve,diabetes mouse [4]; 45th day,32.3 ± 2.1^**#
same,Blood sugar value 0 h,diabetes mouse [4]; 45th day,14.1 ± 1.5^**
same,Blood sugar value 0.5 h,diabetes mouse [4]; 45th day,18.9 ± 1.7^**#
same,Blood sugar value 2 h,diabetes mouse [4]; 45th day,13.2 ± 1.7^**#
same,Survival rate (%),INS-1 cell,92.91 ± 6.69 %
same,Insulin resistance (IR),diabetes mouse [5],1.06^**###
same,Body weight gain on 30th day,[6],5.94 ± 1.03 g
same,Body weight gain on 45th day,[6],7.26 ± 1.48 g
same,"blood sugar, 0 day",diabetes mouse [7]; 0 day,18.07 ± 1.26^*** mmol/L
same,"blood sugar, 30th day","diabetes mouse [7]; 30th day, fasted 16 h",14.94 ± 1.03^**# mmol/L
same,"blood sugar, 45th day","diabetes mouse [7]; 45th day, fasted 16 h",10.24 ± 1.07^*## mmol/L
